According to patent US20210267948A1, “TREATMENT OF CANCER” (CITY OF HOPE, priority 2017, published 2021):

Key:
TOV112D xenograft tumors = assay: TOV112D mouse xenograft; assay type: in vivo; conditions: oral 200, 300 or 400 mg/kg, 7 days
Procedure: (§1) FIGS. 12A-12D depict the activity of COH29 in mouse xenografts. Cancer cells were implanted and allowed to grow at the subcutaneous site until the tumor was measurable. Subcutaneous xenograft growth curves for leukemic-(MOLT-4) mice treated for 12 days with oral COH29 in twice-daily dosing at 50 and 100 mg/kg (FIG. 12A) and for ovarian cancer bearing mice (TOV112D) treated for 7 days with 200, 300, or 400 mg/kg of oral COH29 (FIG. 12B) (shown are the average±SDs for 4 animals/group). FIG. 12C depicts the activity of RNR in MOLT-4 tumor xenografts from mice treated with vehicle (solutol-15) or 100 mg/kg of oral COH29 for 12 days. FIG. 12D depicts the effect of oral COH29 on intratumoral dTNP pools from MOLT-4 tumor xenografts.

ribonucleotide reductase = molecular target: T1, ribonucleotide reductase (Homo sapiens, UniProt P31350); assay: RNR activity and dNTP pools in MOLT-4 tumor xenografts; assay type: in vivo, mouse; conditions: MOLT-4 xenografts
T1 construct: from tissue; host or cells: MOLT-4 subcutaneous tumour xenografts from mice dosed orally with COH29
T1 sequence (P31350 whole entry): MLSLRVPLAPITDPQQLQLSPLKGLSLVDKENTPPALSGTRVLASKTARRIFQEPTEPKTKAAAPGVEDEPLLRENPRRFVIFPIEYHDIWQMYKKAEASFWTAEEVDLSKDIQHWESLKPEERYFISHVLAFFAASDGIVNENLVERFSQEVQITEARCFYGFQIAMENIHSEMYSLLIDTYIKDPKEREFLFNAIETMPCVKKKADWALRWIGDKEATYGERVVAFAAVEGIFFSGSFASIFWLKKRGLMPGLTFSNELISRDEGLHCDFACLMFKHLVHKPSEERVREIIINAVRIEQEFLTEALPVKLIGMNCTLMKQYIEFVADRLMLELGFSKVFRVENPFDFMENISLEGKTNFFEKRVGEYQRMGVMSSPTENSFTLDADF
Procedure: as §1

[1] = tested on: wild-type zebrafish embryos; assay: Zebrafish genotoxicity assay; assay type: in vivo, Danio rerio; conditions: embryos treated 1 to 7 dpf, COH29 0-100 μM
Procedure: The PARP1 activity was determined using the PARP1 Chemiluminescent Assay Kit (BPS Bioscience, San Diego) according to the manufacturer's protocol. Briefly, the ribosylation reaction was carried out with activated DNA in PARP assay buffer using test inhibitor, positive control, substrate control and blank reactions, for 1 hour at 25° C. Detection was by streptavidin-HRP with chemiluminescent substrate A and B read in a luminometer. NZebrafish (Danio rerio) were obtained from zebrafish Core facility of Taipei Medical University and maintained at 28° C. on a 14 h light/10 h dark cycle. Embryos were incubated at 28° C. and different developmental stages were determined as described (25). Wild-type embryos were treated with different concentrations of HU (0, 5, 10, 20, 50 mM) or COH29 (0, 10, 20, 50, 100 μM) at 20 hpf to evaluate the mutagenic effect. Fifteen embryos were treated per well condition. […] Embryos were observed using an Olympus IX70-FLA inverted fluorescence microscope. Images were taken using SPOT digital camera system (Diagnostic Instruments, Sterling Heights, Mich., USA) and assembled with Image) software (26).
To assess the genotoxicity of COH29, wild-type zebrafish embryos were treated from 1 to 7 dpf (day post-fertilization) with a range of doses of COH29 (0-100 μM) and compared to embryos similarly treated with HU (0-50 mM) which is known to cause developmental defects.

MCF-7 p53−/− = assay: DNA damage checkpoint Western blot, MCF-7 p53-/-; assay type: cell-based, human
Procedure: FIG. 6. COH29 treatment activates DNA damage checkpoint. The effect of COH29 treatment on DNA damage checkpoint proteins in human breast cancer cells expressing wt p53 (MCF-7) or defective for p53 (MCF-7p53−/−), and in triple-negative breast cancer cells (MDA-MB-468) assessed by Western Blot.
For subcellular fractionation, cells were trypsinized and washed with cold PBS solution twice. After centrifugation at 1,200 g for 5 min, cells were incubated in buffer (50 mM HEPES, pH 7.5, 150 mM NaCl, 1 mM EDTA) containing 0.2% NONIDET™ P-40 (NP-40), supplemented with protease inhibitors (5 μg/ml each of pepstatin, leupeptin, and aprotinin) and phosphatase inhibitors on ice for 5 min. Following centrifugation at 1,000 g for 5 min, the supernatant was collected (i.e., cytoplasmic fraction) and pellets were washed with the same buffer twice. The washed samples were extracted for 40 min on ice with fractionation buffer containing 0.5% NP-40 for nuclear fraction. All the samples were sonicated and clarified by centrifugation at 16,000 g for 15 min. Protein concentrations of all fractions were determined with Bio-Rad Protein Assay (Bio-Rad Laboratories, Hercules, Calif.). Immunoblotting was performed as described previously (21,22). […] The immunoblots were visualized on film with the West-Q chemi-luminescence kit (GenDEPOT, Barker, Tex.).

[2] = Exposure in animal toxicology studies; conditions: in vivo, read-out: AUC, maximum level observed
Procedure: Maximum dose level is capped at 2400 mg/day (Dose Level 8) corresponding to closest highest level achieved in animal studies. […] Intrapatient dose escalation is permissible if a dose level has been cleared.

[3] = tested on: human cancer cells resistant to gemcitabine, hydroxyurea or cisplatin; assay: Growth of drug-resistant human cancer cells; assay type: cell-based; conditions: KB-Gem, KBHURs and others, 72 h
Procedure: FIGS. 11A-11B depict the activity of COH29 in gemcitabine (KB-Gem) (FIG. 11A) and hydroxyurea (KBHURs) (FIG. 11B) resistant cell lines in 72 h toxicity assay. Hydroxyurea (concentration 2-50 mmol/L), gemcitabine (concentration 20-500 μmon), and COH29 (concentration 2-250 μmon) were used for real-time growth curves for KBHUR and gemcitabine, respectively, based on comparison of 72-h viability of hydroxyurea-resistant or gemcitabine-resistant cells to COH29.

**Q.** What does the source list for `O=C(Nc1nc(-c2ccc(O)c(O)c2)c(-c2ccccc2)s1)c1ccc(O)c(O)c1` [COH29, N-(4-(3,4-dihydroxyphenyl)-5-phenylthiazol-2-yl)-3,4-dihydroxybenzamide]?
**A.** xenograft tumor growth (TOV112D xenograft tumors): inhibited; tumor ribonucleotide reductase activity (ribonucleotide reductase; 100 mg/kg oral, 12 days): reduced; intratumoral dNTF pools (ribonucleotide reductase; oral COH29): decrease; viability of embryos [1]: no developmental defects (FIG. 5C) or decrease in viability; developmental defects ([1]; HU 0-50 mM): no developmental defects; DNA damage checkpoint proteins (ATM, CHK1, CHK2) (MCF-7 p53−/−): similarly modified; γ-H2AX level (MCF-7 p53−/−): increase; AUC [2]: 5000 ng·h/mL; growth of resistant cancer cells [3]: suppresses the growth
